The values that follow come from ChEMBL document CHEMBL3407482, “Synthesis and assessment of the antioxidant and antitumor properties of asymmetric curcumin analogues” (Eur J Med Chem, 2015).

Structures are written as SMILES.

The nature of series [1]: Antioxidant activity assessed as DPPH radical scavenging activity by spectrophotometry. The format is physicochemical.
A short description of series [2]: Antioxidant activity assessed as ABTS radical scavenging activity by spectrophotometry. The format is physicochemical.
Series [3] can be described thus: Antioxidant activity assessed as ROO. radical scavenging activity by TRAP assay. It is filed as physicochemical.
A short description of series [4]: Antioxidant activity assessed as superoxide radical scavenging activity after 5 mins by nitrotetrazolium blue chloride assay. It is filed as physicochemical.
A short description of series [5]: Antiproliferative activity against human SMMC7721 cells after 72 hrs by MTT assay. The format is functional, cell-based. The settings on record: SMMC-7721, 72 h.
In series [6] the test system is MCF7. Kind of series: Antiproliferative activity against human MCF7 cells after 72 hrs by MTT assay. Conditions: MCF7, 72 h. It is filed as functional, cell-based.
Series [7] can be described thus: Antiproliferative activity against human PC3 cells after 72 hrs by MTT assay. The format is functional, cell-based. Conditions: PC-3, 72 h.
The nature of series [8]: Drug metabolism in rat plasma after 24 hrs by HPLC analysis. The format is ADME, cell-free. Conditions: read-out: Drug metabolism.
The subject of a further series is SMMC-7721. As to the kind of experiment: Ratio of curcumin IC50 to compound IC50 for human SMMC7721 cells after 72 hrs by MTT assay. The format is functional.
Series [9] deals with MCF7. As to the kind of experiment: Ratio of curcumin IC50 to compound IC50 for human MCF7 cells after 72 hrs by MTT assay. The format is functional.
In the next series the test system is PC-3. Kind of series: Ratio of curcumin IC50 to compound IC50 for human PC3 cells after 72 hrs by MTT assay. It is filed as functional.
Another series concerns Plasma. As to the kind of experiment: Stability in rat plasma after 24 hrs by HPLC analysis. It is filed as ADME, cell-free.

Take `COc1cc(/C=C/C(=O)/C=C/c2ccc(O)c(OC)c2)ccc1O`: the IC50 was found to be 9.24 µM in series [1]; 30.2 µM in [2]; 44.5 µM in series [3]; 72.6 µM in [4]; 18.4 µM in series [5]; 22.5 µM in the series on MCF7 [6]. Moreover, inhibition in series [7] was half-maximal at 36.3 µM (IC50). The metabolised at 24 h in [8] worked out at 11.9%. Moreover, the “Ratio IC50” value with SMMC-7721, in the series with MCF7 [9] and in the series on PC-3 was 1.6 throughout.

For `CCOc1cc(/C=C/C(=O)/C=C/c2ccc(O)c(OCC)c2)ccc1O`, the IC50 was determined as 50.1 µM in series [1]; 128 µM in [2]; 128 µM in series [3]; 193 µM in series [4]; 19 µM in series [5]; 26.6 µM in the series on MCF7 [6]. This molecule also yielded an IC50 in series [7] of 51.4 µM.

Turning to `COc1cc(/C=C/C(=O)/C=C/c2ccc(C)c(C)c2)ccc1O`, the IC50 in series [1] came out at 41.5 µM; in [2] it was 103 µM; in [3], 136 µM; in [4] it was 178 µM; in series [5], 23.4 µM; in the series with MCF7 [6] it was 21.7 µM.

In the case of `COc1ccc(/C=C/C(=O)/C=C/c2cc(OC)c(OC)c(OC)c2)cc1O`, the IC50 turned out to be 34.4 µM in series [1]; 99.5 µM in series [2]; 118 µM in series [3]; 164 µM in [4]; 11.5 µM in [5]; 40.3 µM in the series on MCF7 [6]. Besides, the IC50 in series [7] stood at 34.9 µM.

Consider `COc1ccc(/C=C/C(=O)/C=C/c2ccc(O)c(OC)c2)cc1O`, for which the IC50 in series [1] was 46.3 µM; in series [2] it was 105 µM; in [3], 123 µM; in series [4], 169 µM; in series [5], 21.6 µM; in the series with MCF7 [6] it was 56.5 µM. This molecule also came in with an IC50 in series [7] of 61.3 µM.

As to `COc1cc(/C=C/C(=O)/C=C/c2cc(OC)c(O)c(OC)c2)ccc1O`, the IC50 in series [1] came out at 28.7 µM; in [2], 85.7 µM; in [3] it was 96.4 µM; in series [4] it was 124 µM; in series [5], 15.1 µM; in the series on MCF7 [6], 28.9 µM. This molecule showed an IC50 in series [7] of 70.2 µM.

Regarding `CCOc1cc(/C=C/C(=O)/C=C/c2ccc(O)c(OC)c2)ccc1O`, the IC50 came out at 31.6 µM in series [1]; 80.6 µM in series [2]; 97.2 µM in [3]; 122 µM in series [4]; 27.3 µM in series [5]; 41.9 µM with MCF7 [6]. In series [7], it took 82.4 µM to reach half-maximal inhibition (IC50). The Stability entry in the series on Plasma is given as “Unstable”.

With `COc1ccc(O)c(/C=C/C(=O)/C=C/c2ccc(C)c(C)c2)c1`, the IC50 is 203 µM in [1]; 132 µM in [2]; 286 µM in series [3]; 207 µM in series [4]; 23.4 µM in [5]; 33.3 µM in the series with MCF7 [6]. The molecule also displayed an IC50 in series [7] of 45.5 µM. Also, the Stability entry in the series on Plasma is recorded as “Unstable”.

With `COc1ccc(O)c(/C=C/C(=O)/C=C/c2ccc(OC)c(OC)c2)c1`, the IC50 in [1] was 94.2 µM; in [2], 292 µM; in [3], 182 µM; in [4] it was 231 µM; in series [5] it was 20.8 µM; in the series with MCF7 [6] it was 22.2 µM. The molecule further came in with an IC50 in series [7] of 31.6 µM. Moreover, the Stability result in the series on Plasma is on record as “Unstable”.

`COc1ccc(O)c(/C=C/C(=O)/C=C/c2cc(OC)c(OC)c(OC)c2)c1`: the IC50 came out at 94.6 µM in series [1]; 114 µM in series [2]; 184 µM in series [3]; 214 µM in series [4]; 25.3 µM in [5]; 40.7 µM in the series with MCF7 [6]. This molecule also gave an IC50 in [7] of 39.9 µM.

Turning to `COc1cc(/C=C/C(=O)/C=C/c2ccc(C)c(C)c2)cc(OC)c1O`, the IC50 in [1] came to 32.6 µM; in [2] it was 113 µM; in [3], 113 µM; in series [4] it was 156 µM; in [5], 13.6 µM; in the series with MCF7 [6], 52.8 µM. The same molecule yielded an IC50 in series [7] of 25.3 µM.

In the case of `COc1ccc(/C=C/C(=O)/C=C/c2cc(OC)c(O)c(OC)c2)cc1OC`, the IC50 in series [1] turned out to be 13.5 µM; in series [2] it was 36.3 µM; in series [3] it was 47.8 µM; in series [4] it was 80.9 µM; in series [5], 24.1 µM; with MCF7 [6] it was 9.11 µM. In addition, the IC50 in series [7] came to 36.9 µM.

Turning to `COc1ccc(/C=C/C(=O)/C=C/c2ccc(OC)c(OC)c2)cc1OC`, the IC50 is over 5630 µM in series [1]; over 5630 µM in series [2]; over 5630 µM in series [3]; over 5630 µM in series [4]; 14.4 µM in [5]; 39.9 µM with MCF7 [6]. In series [7], the IC50 stood at 21.4 µM.

As for `COc1cc(/C=C/C(=O)/C=C/c2cc(OC)c(OC)c(OC)c2)cc(OC)c1OC`, the IC50 is over 4820 µM in [1]; over 4820 µM in series [2]; over 4820 µM in series [3]; over 4820 µM in series [4]; 16.6 µM in series [5]; 13.9 µM with MCF7 [6]. The molecule further came in with an IC50 in series [7] of 42.1 µM. For the same molecule, the Stability result in the series on Plasma is reported as “Unstable”.

For `COc1ccc(/C=C/C(=O)/C=C/c2ccc(OC)c(O)c2)cc1O`, the IC50 amounted to 92 µM in [1]; 177 µM in series [2]; 193 µM in series [3]; 204 µM in [4]; 9.68 µM in [5]; 70.4 µM with MCF7 [6]. Also, the IC50 in series [7] worked out at 97.3 µM.

For `COc1cc(/C=C/C(=O)/C=C/c2cc(OC)c(OC)c(OC)c2)cc(OC)c1O`, the IC50 stood at 28.1 µM in series [1]; 75.1 µM in series [2]; 70 µM in [3]; 117 µM in series [4]; 10.9 µM in series [5]; 43.6 µM with MCF7 [6]. The same molecule came in with an IC50 in [7] of 23.7 µM.

`COc1ccc(/C=C/C(=O)/C=C/c2ccc(OC)c(OC)c2)cc1O`: the IC50 amounted to 19.7 µM in [1]; 91.3 µM in series [2]; 82 µM in series [3]; 119 µM in series [4]; 39.4 µM in series [5]; 67.1 µM in the series on MCF7 [6]. In series [7], it took 53.1 µM to reach half-maximal inhibition (IC50).

For the molecule `O=C1O[C@H]([C@@H](O)CO)C(O)=C1O` [ASCORBIC ACID], the IC50 in series [1] amounted to 45.4 µM; in [2], 105 µM; in series [3], 102 µM; in series [4], 167 µM.

In the case of `COc1cc(/C=C/C(=O)CC(=O)/C=C/c2ccc(O)c(OC)c2)ccc1O` [CURCUMIN], the IC50 in series [1] worked out at 13.5 µM; in series [2] it was 48.6 µM; in series [3] it was 54.4 µM; in series [4], 89.8 µM; in series [5] it was 39.4 µM; in the series with MCF7 [6], 70.2 µM. In [7], this molecule showed an IC50 of 59 µM. For the same molecule, the metabolised at 24 h in series [8] is 55.3%.
